Test results as given in US6080542A, “Plant peptide transport gene” (priority 1997, dated 2000).
Where a SMILES comes first, the peptide text is derived from it. Where no end group is shown, it is not given here. Eth = ethionine

What was measured:
[1] = tested on: PB1X-9B; assay: Growth on peptides as amino acid source, peptide transport mutant; assay type: cell-based, Saccharomyces cerevisiae; settings: PBIX-9B; 80 μM peptide in SC medium, 30° C., 72 hrs
Description: (§1) In addition, untransformed PB1X-9B, PB1X-9B transformed with plasmid pJP9 encoding the above-described yeast peptide transport gene, PB1X-2AΔ and PB1X-2A, the ptr2^+ parental strain to PB1X-2AΔ strain, were also assayed. Each strain was grown overnight in SC media plus uracil (non-transformed) or minus uracil (transformed) plus amino acids to stationary phase and harvested by centrifugation. Cells were then washed twice with sterile dH2 O and resuspended at 5×10^6 cells/ml. 5 μl of each suspension was applied as a small spot to a 2 ml volume of solid media in a 24 well plate. All peptides were suspended in sterile, deionized water and added to an equal volume of SC medium plus the appropriate amino acids and uracil when required. The medium for each assay thus consisted of SC medium plus or minus uracil supplemented with 80 μM of a specific peptide and auxotrophic requirements minus the amino acid components of the added peptide. The plates were incubated at 30° C. for 72 hrs. and then scored for growth.

[2] = tested on: PB1X-9B (pJP9); assay: Growth on peptides, mutant transformed with yeast peptide transport gene; assay type: cell-based, Saccharomyces cerevisiae; settings: for growth on peptide (in words): PB1X-9B transformed with pJP9; for growth on peptide: PBIX-9B (pJP9), 80 μM peptide in SC medium, 30° C., 72 hrs
Description: as §1

[3] = tested on: PB1X-9B (pPTF4); assay: Growth on peptides, mutant transformed with plant gene ATPTR2A; assay type: cell-based, Saccharomyces cerevisiae; settings: PBIX-9B (pPTF4); 80 μM peptide in SC medium, 30° C., 72 hrs
Description: as §1

[4] = tested on: PB1X-2AΔ (pDTF1); assay: Growth on peptides, deletion strain transformed with ATPTR2B; assay type: cell-based, Saccharomyces cerevisiae; design: key: +: Growth was scored as uniform colony formation; -: negative controls which showed no growth; settings: PBIX-2AΔ (pDTF1); 80 μM peptide in SC medium, 30° C., 72 hrs
Description: as §1, with “Thus, the peptide transport mutant PB1X-9B and deletion strain PB1X-2AΔ transformed with plasmids pPTF4 (ATPTR2A) or pDTF1 (ATPTR2B) were grown on various peptides to assess the specificity of the plant peptide transporter. In” for “In”

[5] = tested on: A. thaliana seedlings; assay: Root assay, toxic peptide plus competitor peptide; assay type: in vivo, Arabidopsis thaliana
Description: Approximately 15 A. thaliana seeds were placed in a row at one end of 10 cm plate containing 20 ml of Arabidopsis growth media (Kranz and Kirchheim 1987). The seeds were incubated 3-5 days in the light with the plate set in an upright position. When the roots were approximately 1-2 cm long, sterile paper filter disks were placed immediately in front of the root tips on the right and left side of the plate 2 cm from the edge of the plate. A line was drawn across the plate using the top of the disks as a guide marking zero growth. 5 μl of toxic amino acid analog, toxic peptide, or toxic peptide plus competitor was added to one disk while H2 O was place on the other disk. The plates were incubated for an additional 3-5 days. The average length of the roots was measured from the line and the results expressed as a percentage of control root growth.

[6] = tested on: S. cerevisiae strains tested; assay: Toxic peptide disk assay, statements covering several strains; assay type: cell-based, Saccharomyces cerevisiae; settings: all strains tested
Description: (§2) Since ptr mutants are deficient in peptide transport, they are unable to take up toxic peptides. This inability renders such mutants resistant to the toxic effect of the peptides. In order to determine whether the polynucleotides of the present invention could restore toxic peptide sensitivity to ptr2 mutants, the sensitivity of plasmid-transformed cells was determined. Sensitivity to toxic amino acids and peptides was measured as described by Island, M. D. et al. (J. Bacteriol. 169:2132-2136 (1987)). Briefly, a filter disk containing 0.38 μmoles of the toxic compound was placed on a lawn containing 5×10^6 cells and the plate incubated at 30° C. for 1 to 2 days. Resulting halos were measured across their diameter. The toxic dipeptides Leu-Eth, Ala-Eth, Leu-F-Phe and Oxalysine were synthesized by standard solution phase techniques (Naider, F. et al., J. Biol. Chem. 249:9-20 (1974). The results of this experiment are shown in Table 2 (values are the mean of the diameters of the observed zone of inhibition in millimeters±standard error of the mean of at least two independent experiments).

[7] = tested on: PB1X-9B; assay: Toxic peptide disk assay, peptide transport mutant; assay type: cell-based, Saccharomyces cerevisiae; settings: disk with 0.38 μmoles, lawn of 5×10^6 cells, 30° C., 1 to 2 days, mean ± standard error
Description: as §2

[8] = tested on: PB1X-9B (pJP9); assay: Toxic peptide disk assay, mutant with yeast peptide transport gene; assay type: cell-based, Saccharomyces cerevisiae; settings: disk with 0.38 μmoles, lawn of 5×10^6 cells, 30° C., 1 to 2 days, mean ± standard error
Description: as §2

[9] = tested on: S288C; assay: Toxic peptide disk assay, wild type; assay type: cell-based, Saccharomyces cerevisiae; settings: disk with 0.38 μmoles, lawn of 5×10^6 cells, 30° C., 1 to 2 days, mean ± standard error
Description: as §2

[10] = tested on: PB1X-9B (pPTF4); assay: Toxic peptide disk assay, mutant with plant gene ATPTR2A; assay type: cell-based, Saccharomyces cerevisiae; settings: disk with 0.38 μmoles, lawn of 5×10^6 cells, 30° C., 1 to 2 days, mean ± standard error
Description: as §2

[11] = tested on: ATPTR2Ap; assay: Uptake of L-leucyl-L-[3H]leucine and competition, PB1X-9B[pPTF4]; settings: PB1X-9B[pPTF4]; pH 5.5; dileucine and leucine at 100-fold
Description: The kinetics of ATPTR2A-mediated transport of peptides in yeast was evaluated by transforming pPTF4 into the S. cerevisiae peptide transport mutant, PB1X-9B and measuring the uptake of tritiated Leu-Leu dipeptide.
L-leucyl-L [^3 H]leucine trifluoroacetic acid (TFA) was synthesized by standard solution phase techniques (Naider, F. et al., J. Biol. Chem. 249:9-20 (1974)). Uptake of L-leucyl-L-[H]leucine was performed as by Island, M. D. et al (J. Bacteriol. 169:2132-2136 (1987)), with the following modifications. Cells were grown to late log phase (26×10^7 cells/ml) overnight in SC with 2% glucose, 1 mg/ml allantoin plus amino acids to supplement auxotrophic markers. To induce peptide transport. 5-15 ml from this culture was added to 100 ml fresh medium such that the density was 3.0×10^6 cells/ml. This culture was allowed to grow (approx. 2 hrs.) to a density of 6.0×10^6 cells/ml and then harvested by centrifugation. The pelleted cells were washed twice with 10 ml cold dH2 O and suspended in cold 2% glucose to a final concentration of 2×10^8 cells/ml and incubated at 30° C. for 15 min. 500 μl of cells were then added to an equal volume of reaction mixture (30° C.) and incubated at 30°-C. At 20, 40, 60, 90, and 120 sec. intervals, 190 μl portions were removed, filtered over filters (pore size, 0.45 μm; GN-6; Gelman Sciences, Inc., Ann Arbor, Mich.) and washed 2 times with 5 ml cold, sterile dH2 O and once with 5 ml dH2 O at room temperatures. Filters were placed in scintillation vials with 5 ml of Budget-Solve scintillation cocktail (Research Products International Corp., Mount Prospect, Ill.) and counted (liquid scintillation counter; LS-7000; Beckman Instruments, Inc., Fullerton, Calif.). The final concentration of the components in the uptake assay was 1% glucose, 40 mM sodium citrate-potassium phosphate buffer (pH 5.5), and 1.5×105 M L-leucyl-L-[^3 H]leucine (specific activity, 10 mCi/mmole). Uptake is expressed as nanomoles per mg dry weight.

Row | Compound | growth on peptide [1] | growth on peptide [2] | growth on peptide [3] | sensitivity to toxic peptide [6] | diameter of zone of inhibition [7] [millimeters] | diameter of zone of inhibition [8] [millimeters] | diameter of zone of inhibition [9] [millimeters] | diameter of zone of inhibition [10] [millimeters] | other results
1 | Gly-Leu-Gly-Leu: SEQ ID NO:6 (GLGL) | - | - | - |  |  |  |  |  | growth on peptide (in words) [2]: showed growth on all peptides except
2 | CC(C)C[C@H](NC(=O)[C@@H](N)CCCCN)C(=O)O [Lys-Leu, L-lysyl-L-leucine] (H-Lys-Leu-OH) | - | + | + |  |  |  |  |  | 
3 | tetra-Lys: SEQ ID NO:5 (KKKK) | - | - | - |  |  |  |  |  | growth on peptide (in words) [2]: showed growth on all peptides except; growth on peptide [4]: -
4 | CSCC[C@H](N)C(=O)O [Met] |  |  |  |  |  |  |  |  | reversal of toxicity by competitor (in words) ([5]; toxic peptide Ala-Eth): unable to reverse the inhibition; root growth with toxic peptide plus competitor ([5]; toxic peptide Ala-Eth): 0 percentage of control root gro; reversal of toxicity by competitor (in words) ([5]; toxic peptide Leu-Eth): unable to reverse the inhibition; root growth with toxic peptide plus competitor ([5]; toxic peptide Leu-Eth): 0 percentage of control root gro
5 | Lys-Leu-Leu-Eth: ethionine-containing peptide of four residues |  |  |  | None of the strains tested were sensitive | 0 | 0 | 0 | 0 | 
6 | CC(C)C[C@H](NC(=O)[C@@H](N)CC(C)C)C(=O)O [Leu-Leu, L-leucyl-L-leucine] | - | + | + |  |  |  |  |  | competition for uptake of [3H]-dileucine [11]: inhibited
7 | Lys-Leu-Ala-Eth: ethionine-containing peptide of four residues |  |  |  | None of the strains tested were sensitive | 0 | 0 | 0 | 0 | 
8 | Lys-Leu-Leu-Leu-Eth: ethionine-containing peptide, SEQ ID NO:14 (KLLL-Eth) |  |  |  | None of the strains tested were sensitive | 0 | 0 | 0 | 0 | 
